{"source": "ChEMBL document CHEMBL1201862", "about": "“PubChem BioAssay data set” (2004)", "key": {"[1]": {"target": "5-hydroxytryptamine receptor 2A (Mus musculus, UniProt P35363)", "sequence (P35363 whole entry)": "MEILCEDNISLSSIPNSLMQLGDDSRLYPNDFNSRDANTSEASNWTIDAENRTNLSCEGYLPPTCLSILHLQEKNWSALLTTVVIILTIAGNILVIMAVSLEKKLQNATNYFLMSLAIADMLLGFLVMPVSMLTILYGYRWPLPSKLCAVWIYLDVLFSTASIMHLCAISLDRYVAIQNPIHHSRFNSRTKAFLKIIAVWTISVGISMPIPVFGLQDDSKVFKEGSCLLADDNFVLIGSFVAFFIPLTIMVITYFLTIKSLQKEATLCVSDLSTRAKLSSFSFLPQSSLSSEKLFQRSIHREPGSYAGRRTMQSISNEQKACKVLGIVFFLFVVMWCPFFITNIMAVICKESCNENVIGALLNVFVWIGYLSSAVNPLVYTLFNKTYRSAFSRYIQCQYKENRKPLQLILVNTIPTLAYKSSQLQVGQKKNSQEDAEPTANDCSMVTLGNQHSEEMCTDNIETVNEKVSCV", "format": "functional, cell-based"}, "[2]": {"target": "Mu-type opioid receptor (Homo sapiens, UniProt P35372)", "sequence (P35372 whole entry)": "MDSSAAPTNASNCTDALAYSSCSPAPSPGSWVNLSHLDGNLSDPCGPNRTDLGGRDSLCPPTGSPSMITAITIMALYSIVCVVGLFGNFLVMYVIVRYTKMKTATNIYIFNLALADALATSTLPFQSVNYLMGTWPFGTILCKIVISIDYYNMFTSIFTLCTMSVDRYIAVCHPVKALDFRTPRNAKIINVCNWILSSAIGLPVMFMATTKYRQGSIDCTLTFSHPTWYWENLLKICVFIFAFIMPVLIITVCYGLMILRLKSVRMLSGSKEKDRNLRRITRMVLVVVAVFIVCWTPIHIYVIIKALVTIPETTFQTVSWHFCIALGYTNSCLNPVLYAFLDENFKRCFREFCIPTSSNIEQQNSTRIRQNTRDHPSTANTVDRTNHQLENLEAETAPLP", "format": "functional, cell-based"}, "[3]": {"target": "Fructose-bisphosphate aldolase (Mycobacterium tuberculosis, UniProt P9WQA3)", "sequence (P9WQA3 whole entry)": "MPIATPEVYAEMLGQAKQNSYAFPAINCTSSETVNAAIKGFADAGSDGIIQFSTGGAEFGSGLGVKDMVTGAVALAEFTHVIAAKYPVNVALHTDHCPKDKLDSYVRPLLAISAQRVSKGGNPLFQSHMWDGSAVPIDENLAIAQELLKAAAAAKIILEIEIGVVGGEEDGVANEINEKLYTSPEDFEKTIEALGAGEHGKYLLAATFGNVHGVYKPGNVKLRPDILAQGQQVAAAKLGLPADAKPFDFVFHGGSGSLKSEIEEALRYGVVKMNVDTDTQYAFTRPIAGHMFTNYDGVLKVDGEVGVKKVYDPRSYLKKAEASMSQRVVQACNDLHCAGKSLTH", "test": "Fluorescence-based biochemical high throughput dose response assay for inhibitors of the fructose-bisphosphate aldolase (FBA) of M. tuberculosis.", "format": "functional"}, "[4]": {"test": "blockade of melanocortin 4 receptor signaling – cell-based, plate reader, cherry pick, counter-screen for LGR2 antagonist project, dose response (AID 743444);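 note: transfected HEK 293 cells stimulated with alpha-MSH peptide; potency of inhibitors of the alpha-MSH evoked signal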", "format": "functional"}, "[5]": {"target": "T1, Heat shock factor protein 1 (Mus musculus, UniProt P38532)", "T1 sequence (P38532 whole entry)": "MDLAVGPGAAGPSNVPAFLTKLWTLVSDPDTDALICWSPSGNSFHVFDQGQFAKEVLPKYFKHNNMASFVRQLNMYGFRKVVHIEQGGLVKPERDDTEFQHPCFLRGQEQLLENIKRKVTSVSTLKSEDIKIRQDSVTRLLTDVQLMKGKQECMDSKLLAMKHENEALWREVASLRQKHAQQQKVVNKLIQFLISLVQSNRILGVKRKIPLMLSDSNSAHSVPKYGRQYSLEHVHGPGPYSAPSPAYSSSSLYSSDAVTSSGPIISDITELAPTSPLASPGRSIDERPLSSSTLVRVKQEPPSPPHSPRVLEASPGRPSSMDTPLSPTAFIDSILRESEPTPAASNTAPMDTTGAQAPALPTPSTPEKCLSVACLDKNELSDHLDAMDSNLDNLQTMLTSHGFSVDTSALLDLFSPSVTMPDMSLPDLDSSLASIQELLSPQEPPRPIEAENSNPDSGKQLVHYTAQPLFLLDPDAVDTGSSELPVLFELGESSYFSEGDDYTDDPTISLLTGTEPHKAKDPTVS", "test": "decrease of HSF1-responsive luciferase luminescence – cell-based, NIH3T3, dose retest, confirmation (AID 2382);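 note: NIH3T3 fibroblasts with HSF1-driven luciferase reporter stressed by proteasome inhibitor MG132; luminescence from HSF1-driven luciferase expression after 8 hours of MG132 stress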", "format": "functional"}, "[6]": {"test": "viability loss in HEK293 cells – cell-based, plate reader, cherry-picked samples, cytotoxicity control, dose response (AID 743446)", "format": "functional"}, "[7]": {"test": "A549 cell cytotoxicity, dose response, cytotoxicity control, plate reader, cherry-pick, antagonist series (AID 743412)", "format": "functional, cell-based"}, "[8]": {"test": "blockers of bursicon-stimulated LGR2 cAMP reporter – cell-based, HEK293, CRE-luciferase reporter, cherry pick, set 2, dose response (AID 743343);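 note: transfected cells were stimulated with diluted bursicon conditioned medium after compound addition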", "format": "functional"}, "[9]": {"test": "Luminescence Cell-Based Dose Response HTS to Identify Activators of Luciferase Translation or Activity in H4 […] Cells. [Related pubchem assays: 1829 (Project Summary), 1814 (Primary HTS)]", "format": "functional"}, "[10]": {"test": "Luminescence Cell-Based Dose Confirmation HTS to Identify Activators of 5'UTR Stem-Loop Driven Alpha-Synuclein mRNA Translation in H4 Neuroglioblastoma Cells. [Related pubchem assays: 1829 (Project Summary), 1814 (Primary HTS)]", "format": "functional"}, "[11]": {"system": "H4", "test": "Luminescence Cell-Based Dose Response HTS to Identify Activators of 5'UTR Stem-Loop Driven Prion Protein mRNA Translation in H4 Neuroglioblastoma Cells. [Related pubchem assays: 1829 (Project Summary), 1814 (Primary HTS)]", "format": "functional", "settings": "Homo sapiens"}, "[12]": {"test": "HEK-293T cell viability reduction – luminescence, B-cell screen hits, cytotoxicity control for BCR NF-kB inhibitor project, dose response (AID 489021);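 note: cells exposed to compound for about 14 hours before viability readout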", "format": "functional, cell-based"}, "[13]": {"test": "viability of PTEN-deleted HCT116 cells – cell-based, HCT116 PTEN knockout, dose response (AID 1047);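 note: cells exposed to compound for 60 hours before readout; potency for loss of cell viability measured by luminescence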", "format": "functional"}, "[14]": {"test": "viability of HCT116 lacking mutant beta-catenin – cell-based, human colon tumor, dose response (AID 1045);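 note: cells exposed to compound for 60 hours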", "format": "functional"}, "[15]": {"target": "Hepatocyte nuclear factor 4-alpha (Homo sapiens, UniProt P41235)", "sequence (P41235 whole entry)": "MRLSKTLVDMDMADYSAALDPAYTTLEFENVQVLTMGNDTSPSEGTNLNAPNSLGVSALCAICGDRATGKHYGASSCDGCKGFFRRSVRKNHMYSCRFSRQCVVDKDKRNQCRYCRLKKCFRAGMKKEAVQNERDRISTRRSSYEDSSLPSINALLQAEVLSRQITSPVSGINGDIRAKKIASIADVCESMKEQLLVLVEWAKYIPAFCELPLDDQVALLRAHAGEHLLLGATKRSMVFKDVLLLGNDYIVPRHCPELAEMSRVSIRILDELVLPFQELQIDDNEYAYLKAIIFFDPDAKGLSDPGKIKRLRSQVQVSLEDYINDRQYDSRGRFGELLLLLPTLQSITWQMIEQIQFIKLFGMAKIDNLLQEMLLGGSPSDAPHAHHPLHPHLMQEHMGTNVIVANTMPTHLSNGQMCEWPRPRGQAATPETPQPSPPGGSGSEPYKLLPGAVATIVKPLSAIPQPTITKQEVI", "format": "functional, cell-based"}, "[16]": {"target": "Cytochrome P450 3A4 (Homo sapiens, UniProt P08684)"}, "[17]": {"target": "fMet-Leu-Phe receptor (Homo sapiens, UniProt P21462)", "sequence (P21462 whole entry)": "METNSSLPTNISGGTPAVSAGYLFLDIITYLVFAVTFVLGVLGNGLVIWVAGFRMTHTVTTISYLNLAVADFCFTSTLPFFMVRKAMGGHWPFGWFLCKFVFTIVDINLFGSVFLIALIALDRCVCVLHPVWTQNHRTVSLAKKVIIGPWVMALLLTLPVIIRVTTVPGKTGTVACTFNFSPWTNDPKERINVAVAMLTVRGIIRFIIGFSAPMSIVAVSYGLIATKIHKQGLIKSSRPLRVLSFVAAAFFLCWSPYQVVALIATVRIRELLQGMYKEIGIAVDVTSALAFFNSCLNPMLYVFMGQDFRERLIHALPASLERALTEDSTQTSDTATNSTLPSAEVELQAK", "test": "formyl peptide receptor binders – dose response (AID 519)", "format": "functional"}, "[18]": {"target": "T2, Polyadenylate-binding protein 1 (Homo sapiens, UniProt P11940)", "T2 sequence (P11940 whole entry)": "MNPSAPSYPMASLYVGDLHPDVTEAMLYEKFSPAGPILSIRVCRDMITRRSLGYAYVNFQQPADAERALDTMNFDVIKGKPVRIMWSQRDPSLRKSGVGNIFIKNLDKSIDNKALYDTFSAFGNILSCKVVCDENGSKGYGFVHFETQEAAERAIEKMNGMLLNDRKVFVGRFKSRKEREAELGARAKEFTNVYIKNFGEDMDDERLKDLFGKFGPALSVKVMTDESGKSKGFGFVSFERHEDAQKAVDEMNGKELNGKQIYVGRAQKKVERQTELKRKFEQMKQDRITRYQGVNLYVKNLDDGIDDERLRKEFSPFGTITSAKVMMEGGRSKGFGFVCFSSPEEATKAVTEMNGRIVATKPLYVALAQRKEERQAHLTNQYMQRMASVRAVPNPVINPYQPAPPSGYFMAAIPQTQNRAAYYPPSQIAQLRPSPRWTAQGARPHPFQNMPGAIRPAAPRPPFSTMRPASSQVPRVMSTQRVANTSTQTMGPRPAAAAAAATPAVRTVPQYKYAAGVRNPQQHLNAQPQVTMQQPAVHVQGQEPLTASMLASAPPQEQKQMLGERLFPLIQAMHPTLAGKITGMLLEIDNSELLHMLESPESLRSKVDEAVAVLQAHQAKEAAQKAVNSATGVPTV", "test": "MLLE binding blockers, Cy5 peptide tracer – biochemical, fluorescence polarization, Cy5-PAM2 peptide, secondary, miRNA deadenylation inhibitor project, dose response (AID 602260)", "format": "functional", "settings": "read-out: IC50_Mean"}, "[19]": {"target": "Botulinum neurotoxin type F (Clostridium botulinum, UniProt P30996)", "test": "High-throughput multiplex microsphere dose response for inhibitors of toxin protease, specifically Botulinum neurotoxin light chain F protease, compounds from Cherry Pick 02.", "format": "functional", "settings": "read-out: EC50_MICROM"}, "[20]": {"target": "T2, Polyadenylate-binding protein 1", "test": "MLLE domain peptide-binding blockers, IC50 – biochemical, fluorescence polarization, FITC-PAM2 peptide, dose response (AID 602259)", "format": "functional", "settings": "read-out: IC50_Mean"}, "[21]": {"test": "nonselective StAR promoter luciferase inhibitors – cell-based, luminescence, luciferase reporter, counter-screen for LRH-1 inverse agonist project, dose response (AID 651969)", "format": "functional"}, "[22]": {"target": "Luciferin 4-monooxygenase (Photinus pyralis, UniProt P08659)", "sequence (P08659 whole entry)": "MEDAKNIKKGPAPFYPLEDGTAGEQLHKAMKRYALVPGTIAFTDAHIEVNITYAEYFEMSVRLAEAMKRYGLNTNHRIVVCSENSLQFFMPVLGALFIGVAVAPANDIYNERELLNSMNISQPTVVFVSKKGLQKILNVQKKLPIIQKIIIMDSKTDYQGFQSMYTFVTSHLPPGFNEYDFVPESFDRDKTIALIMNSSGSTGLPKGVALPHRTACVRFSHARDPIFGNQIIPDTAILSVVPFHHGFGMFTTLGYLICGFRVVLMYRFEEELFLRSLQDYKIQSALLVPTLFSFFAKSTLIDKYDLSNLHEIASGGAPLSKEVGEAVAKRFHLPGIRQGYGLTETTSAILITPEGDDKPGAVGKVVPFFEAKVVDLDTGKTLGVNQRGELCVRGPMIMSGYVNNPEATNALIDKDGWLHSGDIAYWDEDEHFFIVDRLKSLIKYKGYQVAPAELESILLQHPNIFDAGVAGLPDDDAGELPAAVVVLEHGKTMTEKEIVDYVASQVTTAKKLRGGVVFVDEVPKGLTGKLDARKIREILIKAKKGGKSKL", "test": "inhibition of purified Photinus pyralis luciferase – biochemical, luminescence, dose response (AID 1891)"}, "[23]": {"target": "Steroidogenic factor 1 (Homo sapiens, UniProt Q13285)", "sequence (Q13285 whole entry)": "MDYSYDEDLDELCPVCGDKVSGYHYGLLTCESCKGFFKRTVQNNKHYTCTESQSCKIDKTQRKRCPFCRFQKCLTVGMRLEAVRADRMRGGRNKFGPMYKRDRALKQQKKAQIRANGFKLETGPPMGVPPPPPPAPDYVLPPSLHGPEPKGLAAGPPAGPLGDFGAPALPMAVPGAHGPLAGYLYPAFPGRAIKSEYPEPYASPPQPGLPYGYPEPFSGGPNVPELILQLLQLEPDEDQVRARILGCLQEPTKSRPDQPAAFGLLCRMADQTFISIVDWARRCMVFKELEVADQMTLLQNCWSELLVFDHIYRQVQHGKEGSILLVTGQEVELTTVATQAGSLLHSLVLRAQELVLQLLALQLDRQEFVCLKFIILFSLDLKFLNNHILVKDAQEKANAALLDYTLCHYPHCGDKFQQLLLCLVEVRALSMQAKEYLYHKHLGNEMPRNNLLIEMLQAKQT", "test": "Counterscreen for inverse agonists of the liver receptor homolog-1 (LRH-1; NR5A2): Luminescence-based cell-based high throughput dose response assay to identify inverse agonists of the Steroidogenic Factor 1 Nuclear Receptor (SF1; NR5A1).", "format": "functional"}, "[24]": {"test": "Luminescence Cell-Based Dose Confirmation HTS to Identify Inhibitors of Platelet Dense Granule Release. [Related pubchem assays: 1663 (Primary HTS), 1678 (Summary of Project)]", "format": "functional"}, "[25]": {"target": "Nuclear receptor subfamily 5 group A member 2 (Homo sapiens, UniProt O00482)", "format": "functional, cell-based"}, "[26]": {"target": "DNA dC->dU-editing enzyme APOBEC-3G (Homo sapiens, UniProt Q9HC16)", "sequence (Q9HC16 whole entry)": "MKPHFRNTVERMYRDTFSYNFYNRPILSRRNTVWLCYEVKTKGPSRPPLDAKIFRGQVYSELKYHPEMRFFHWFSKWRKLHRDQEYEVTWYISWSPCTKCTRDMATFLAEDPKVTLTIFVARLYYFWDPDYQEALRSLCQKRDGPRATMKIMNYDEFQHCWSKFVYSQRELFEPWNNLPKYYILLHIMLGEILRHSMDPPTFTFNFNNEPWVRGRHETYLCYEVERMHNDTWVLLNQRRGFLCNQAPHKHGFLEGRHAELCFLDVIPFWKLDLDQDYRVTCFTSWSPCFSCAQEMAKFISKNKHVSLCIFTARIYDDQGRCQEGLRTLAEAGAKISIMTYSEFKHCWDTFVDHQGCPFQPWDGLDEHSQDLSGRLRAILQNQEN", "format": "functional"}, "[27]": {"target": "Beta-galactosidase (Escherichia coli, UniProt Q8VNN2)", "test": "Dose response counterscreen for EBI2 assay utilizing the enzyme, b-galactosidase.", "format": "functional"}, "[28]": {"target": "DNA dC->dU-editing enzyme APOBEC-3A (Homo sapiens, UniProt P31941)", "sequence (P31941 whole entry)": "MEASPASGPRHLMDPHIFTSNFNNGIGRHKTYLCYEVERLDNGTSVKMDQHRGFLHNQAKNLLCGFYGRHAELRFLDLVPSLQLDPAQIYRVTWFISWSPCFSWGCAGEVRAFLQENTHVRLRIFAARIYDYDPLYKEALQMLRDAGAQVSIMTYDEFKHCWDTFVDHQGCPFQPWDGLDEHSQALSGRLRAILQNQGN", "test": "Dose Response confirmation of small molecule APOBEC3A DNA Deaminase Inhibitors via a fluorescence-based single-stranded DNA deaminase assay. [Related pubchem assays (depositor defined):AID493011, AID493024]", "format": "functional"}, "[29]": {"test": "cells", "format": "functional, cell-based"}, "[30]": {"target": "Nuclear receptor subfamily 0 group B member 1 (Homo sapiens, UniProt P51843)", "sequence (P51843 whole entry)": "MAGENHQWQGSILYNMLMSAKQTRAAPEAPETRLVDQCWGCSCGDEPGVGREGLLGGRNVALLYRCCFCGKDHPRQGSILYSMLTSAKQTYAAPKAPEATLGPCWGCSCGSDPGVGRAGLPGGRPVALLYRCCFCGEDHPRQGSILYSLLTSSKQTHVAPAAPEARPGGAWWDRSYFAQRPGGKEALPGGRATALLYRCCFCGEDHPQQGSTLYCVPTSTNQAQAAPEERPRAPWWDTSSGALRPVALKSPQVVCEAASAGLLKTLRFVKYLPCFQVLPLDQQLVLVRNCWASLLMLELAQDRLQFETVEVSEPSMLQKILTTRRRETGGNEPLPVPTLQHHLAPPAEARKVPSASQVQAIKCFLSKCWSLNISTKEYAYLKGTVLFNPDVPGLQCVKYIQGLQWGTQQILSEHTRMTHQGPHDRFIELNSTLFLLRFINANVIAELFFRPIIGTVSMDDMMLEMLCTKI", "format": "functional, cell-based"}}, "note": "The source made the active and inactive calls.", "data": [{"smiles": "c1ccc(N2CCN(Cc3ccsc3)CC2)nc1", "values": [{"measurement": "EC50", "setting": "[1]", "value": "0.125 µM (active)"}, {"measurement": "EC50", "setting": "[2]", "value": "92.4 µM (inactive)"}]}, {"smiles": "O=C1NC(=O)c2cc(NC(=O)C3CCCO3)ccc21", "note": "(configuration not stated)", "values": [{"measurement": "IC50", "setting": "[3]", "value": "2.39 µM (active)"}]}, {"smiles": "CN(C(=O)COC(=O)c1nc(Cl)c(Cl)c(Cl)c1Cl)C1CCS(=O)(=O)C1", "note": "(configuration not stated)", "values": [{"measurement": "AC50", "setting": "[4]", "value": "22.7 µM (active)"}, {"measurement": "EC50", "setting": "[5]", "value": "13.1 µM (active)"}, {"measurement": "AC50", "setting": "[6]", "value": "6.09 µM (active)"}, {"measurement": "AC50", "setting": "[7]", "value": "7.97 µM (active)"}, {"measurement": "AC50", "setting": "[8]", "value": "15.8 µM (active)"}, {"measurement": "EC50", "setting": "[9]", "value": "> 120 µM (not active)"}, {"measurement": "EC50", "setting": "[10]", "value": "> 120 µM (not active)"}, {"measurement": "EC50", "setting": "[11]", "value": "> 120 µM (not active)"}]}, {"smiles": "CC1=CC(C)(C)Nc2ccc(OC(=O)C(C)N3C(=O)c4ccccc4C3=O)cc21", "note": "(configuration not stated)", "values": [{"measurement": "IC50", "setting": "[12]", "value": "> 80 µM (inactive)"}, {"measurement": "EC50", "setting": "[13]", "value": "8.18 µM (active)"}, {"measurement": "EC50", "setting": "[14]", "value": "7.55 µM (active)"}, {"measurement": "IC50", "setting": "[15]", "value": "11.1 µM (inactive)"}]}, {"smiles": "COCCCN1C(=O)C(O)=C(C(=O)c2ccc(OC)cc2C)C1c1cccnc1", "note": "(configuration not stated)", "values": [{"measurement": "AC50", "setting": "[16]", "value": "20 µM (inconclusive)"}, {"measurement": "Ki", "setting": "[17]", "value": "> 66.7 µM (inactive)"}]}, {"smiles": "Cc1cc2cc(CNC(=O)c3cccc([N+](=O)[O-])c3)ccc2[nH]1", "values": [{"measurement": "IC50", "setting": "[18]", "value": "> 66 µM (inactive)"}, {"measurement": "EC50", "setting": "[19]", "value": "> 20 µM (inactive)"}, {"measurement": "IC50", "setting": "[20]", "value": "> 66 µM (inactive)"}]}, {"smiles": "COc1ccc(C2(C)NC(=O)N(CC(=O)NCCC3=CCCCC3)C2=O)cc1OC", "note": "(configuration not stated)", "values": [{"measurement": "IC50", "setting": "[21]", "value": "35.9 µM (inactive)"}, {"measurement": "EC50", "setting": "[22]", "value": "> 112 µM (not active)"}, {"measurement": "IC50", "setting": "[23]", "value": "5.24 µM (active)"}, {"measurement": "EC50", "setting": "[24]", "value": "> 112 µM (not active)"}, {"measurement": "IC50", "setting": "[25]", "value": "35.9 µM (inactive)"}]}, {"smiles": "CCOc1cc(CN2CCN(c3ncccn3)CC2)ccc1OC", "values": [{"measurement": "EC50", "setting": "[1]", "value": "76.1 µM (inactive)"}, {"measurement": "EC50", "setting": "[2]", "value": "92.5 µM (inactive)"}]}, {"smiles": "COc1ccccc1CCNC(=O)C1CCN(C(=O)/C=C/c2ccccc2)CC1", "values": [{"measurement": "IC50", "setting": "[26]", "value": "14.6 µM (active)"}, {"measurement": "IC50", "setting": "[27]", "value": "> 80 µM (inactive)"}, {"measurement": "IC50", "setting": "[28]", "value": "13.9 µM (active)"}]}, {"smiles": "CCOC(=O)c1c(SCC(=O)Nc2nccs2)nc(C)c(C)c1C", "values": [{"measurement": "IC50", "setting": "[29]", "value": "> 67.5 µM (inactive)"}, {"measurement": "IC50", "setting": "[30]", "value": "> 67.5 µM (inactive)"}]}]}
